Assays:
[1] = target: T1, UGT73E1 homologous protein 1 (Stevia rebaudiana, UniProt Q6VAA9); assay: Enzyme activity of UGT73E1 homologous protein 1: glucosylation of sugar acceptor substrates, LC-MS analysis; type: biochemical; details: for products found in the reaction solution with UGT73E1 homologous protein 1: 2 mM UDP-glucose, 0.1 mM sugar acceptor substrate, potassium phosphate buffer pH 7.0, 30° C., 1 hour
T1 construct: designed to carry the open reading frame of the UGT73E1 homologous protein 1 gene in frame with a His tag; made in house; host or cells: E. coli BL21(DE3)
T1 sequence (Q6VAA9 whole entry H50D/D106H/L131W/P152K/L157P/I160M/V199L/A305T/L422S): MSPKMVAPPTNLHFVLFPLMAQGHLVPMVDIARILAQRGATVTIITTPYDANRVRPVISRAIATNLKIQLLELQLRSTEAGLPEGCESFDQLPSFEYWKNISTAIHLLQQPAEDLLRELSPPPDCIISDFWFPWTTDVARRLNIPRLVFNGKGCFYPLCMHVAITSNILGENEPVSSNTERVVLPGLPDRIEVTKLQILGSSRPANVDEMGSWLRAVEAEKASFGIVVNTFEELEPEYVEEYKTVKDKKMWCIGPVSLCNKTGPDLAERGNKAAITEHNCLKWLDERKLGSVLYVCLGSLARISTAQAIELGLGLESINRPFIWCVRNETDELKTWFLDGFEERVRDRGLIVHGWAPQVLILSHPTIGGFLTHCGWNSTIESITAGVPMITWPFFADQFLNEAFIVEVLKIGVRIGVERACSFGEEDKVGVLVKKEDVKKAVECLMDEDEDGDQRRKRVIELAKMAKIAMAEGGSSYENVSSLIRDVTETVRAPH
Protocol: Standard enzyme reaction conditions are as follows. A reaction solution (2 mM UDP-glucose, 0.1 mM sugar acceptor substrate (steviol), 100 mM potassium phosphate buffer (pH 7.0), 25 μl purified UGT73E1 homologous protein 1 enzyme solution) was prepared in a volume of 50 μl with distilled water and reacted at 30° C. for 1 hour. The enzyme reaction solution (5 μl) was analyzed by LC-MS under the following conditions.
Column: Waters Sunfire C18 3.5 um (2.0 mm I.D.×20 mm)
Mobile phase: A: MilliQ Water (+0.05% formic acid), B: MeCN
Gradient: linear concentration gradient of B from 15% to 55% over 20 minutes
Flow rate: 0.2 ml per minute

[2] = reported in previous studies (Non-patent Document 2); cited from earlier work

| Molecule | products found in the reaction solution with UGT73E1 homologous protein 1 [1] | stevioside peak in the reaction solution with UGT73E1 homologous protein 1 ([1]; substrate reacted with UGT73E1 homologous protein 1) | glycosylation activity on steviol glycosides [2] |
| --- | --- | --- | --- |
| C=C1C[C@@]23CC[C@H]4[C@@](C)(CCC[C@@]4(C)C(=O)O)[C@@H]2CC[C@]1(O)C3 (single isomer, unassigned) [steviol] | four types of products were newly found |  |  |
| C=C1C[C@@]23CC[C@H]4[C@@](C)(CCC[C@@]4(C)C(=O)O[C@@H]4O[C@H](CO)[C@@H](O)[C@H](O)[C@H]4O)[C@@H]2CC[C@]1(O[C@@H]1O[C@H](CO)[C@@H](O)[C@H](O)[C@H]1O)C3 [rubusoside] | Compound Z which appears to be a triglucoside of steviol was newly generated | no significant stevioside peak can be found |  |
| C=C1C[C@@]23CC[C@H]4[C@@](C)(CCC[C@@]4(C)C(=O)O)[C@@H]2CC[C@]1(O[C@@H]1O[C@H](CO)[C@@H](O)[C@H](O)[C@H]1O[C@@H]1O[C@H](CO)[C@@H](O)[C@H](O)[C@H]1O)C3 [steviolbioside] | a product which appears to be stevioside (peak F) was also detected |  |  |
| C=C1C[C@@]23CC[C@H]4[C@@](C)(CCC[C@@]4(C)C(=O)O)[C@@H]2CC[C@]1(O[C@@H]1O[C@H](CO)[C@@H](O)[C@H](O)[C@H]1O)C3 [steviolmonoside] | two peaks (peak E and peak F) were newly obtained |  |  |
| UGT73E1: reported stevia glycosyltransferase, 98% identical to UGT73E1 homologous protein 1 (protein, UniProt Q6VAA9 1-495, looked up) UDP-glycosyltransferase 73E1: MSPKMVAPPTNLHFVLFPLMAQGHLVPMVDIARILAQRGATVTIITTPYHANRVRPVISRAIATNLKIQLLELQLRSTEAGLPEGCESFDQLPSFEYWKNISTAIDLLQQPAEDLLRELSPPPDCIISDFLFPWTTDVARRLNIPRLVFNGPGCFYLLCIHVAITSNILGENEPVSSNTERVVLPGLPDRIEVTKLQIVGSSRPANVDEMGSWLRAVEAEKASFGIVVNTFEELEPEYVEEYKTVKDKKMWCIGPVSLCNKTGPDLAERGNKAAITEHNCLKWLDERKLGSVLYVCLGSLARISAAQAIELGLGLESINRPFIWCVRNETDELKTWFLDGFEERVRDRGLIVHGWAPQVLILSHPTIGGFLTHCGWNSTIESITAGVPMITWPFFADQFLNEAFIVEVLKIGVRIGVERACLFGEEDKVGVLVKKEDVKKAVECLMDEDEDGDQRRKRVIELAKMAKIAMAEGGSSYENVSSLIRDVTETVRAPH |  |  | no glycosylation activity on steviol glycosides |

From US10113155B2, “Steviol glycosyltransferase and gene encoding same” (SUNTORY HOLDINGS LIMITED, priority 2012, dated 2018)
